Source: ChEMBL document CHEMBL1135603, “Modeling of binding modes and inhibition mechanism of some natural ligands of farnesyl transferase using molecular docking” (J Med Chem, 2002)

Tests used:
[1] = biological target: Protein farnesyltransferase (Rattus norvegicus, UniProt Q02293+Q04631); experiment: Inhibition of Farnesyltransferase; type: protein-complex assay
[2] = Partition coefficient (logP); type: physicochemical; conditions: octanol/water

Row | SMILES | IC50 [1] | logP [2]
1 | CC(C)CCCC(C)C1CCC2C3C(CC[C@]12C)[C@@](C)(CCC(=O)O)C(=O)C[C@@H]3C (some centres not stated) | 900 nM | –
2 | CC(C)CCCC(C)C1CCC2C3CCC(=O)[C@](C)(C[C@@H](CC(=O)O)C(=O)O)C3CC[C@]12C (some centres not stated) | 190 nM | –
3 | CC(=O)O[C@H]1CC[C@]2(C=O)[C@H](CC[C@@]3(C)[C@H]2C=C(C)[C@@]2(C)C(O)=C(C)C(=O)[C@]23C(=O)O)C1(C)C [ANDRASTATIN A] | 24900 nM | 1.7
4 | CC(=O)O[C@H]1CC[C@]2(CO)[C@H](CC[C@@]3(C)[C@H]2C=C(C)[C@@]2(C)C(O)=C(C)C(=O)[C@]23C(=O)O)C1(C)C [ANDRASTATIN B] | 47100 nM | 1.6
5 | CC(=O)O[C@H]1CC[C@]2(C)[C@H](CC[C@@]3(C)[C@H]2C=C(C)[C@@]2(C)C(O)=C(C)C(=O)[C@]23C(=O)O)C1(C)C [ANDRASTATIN C] | 13300 nM | 2.7
6 | C=C1C(=O)O[C@@H]2[C@H]3C[C@@]4(C)C=CC3(CC43C(=O)O[C@@H]4C5C(C)=CC(=O)C5=C(C)C[C@H](CC(=O)CC(C)C)C43)[C@](C)(O)CC[C@@H]12 (some centres not stated) [ARTEMINOLIDE] | 360 nM | 1.8
7 | COC(=O)C1=CC(CO)=COc2oc3cccc(O)c3c(=O)c21 [FUSIDIENOL] | 300 nM | 1.8
8 | CC(C)=CCC/C(C)=C/CC/C(C)=C/CC/C(=C\C(=O)O)C(=O)O [SCHIZOSTATIN E] | – | 1.3
9 | CC(C)=CCC/C(C)=C/CC/C(C)=C/CC/C(=C/C(=O)O)C(=O)O [SCHIZOSTATIN Z] | 300000 nM | 1.4
10 | C=C(CC[C@]12O[C@H](C(=O)O)[C@@](O)(C(=O)O)[C@](C(=O)O)(O1)[C@H](OC(=O)/C=C/[C@@H](C)C[C@@H](C)CC)[C@H]2O)[C@@H](OC(C)=O)[C@H](C)Cc1ccccc1 [ZARAGOZIC ACIDS A] | 12 nM | 2
